The text below walks through data of ChEMBL document CHEMBL4118051, “Scalemic Caged Xanthones Isolated from the Stem Bark Extract of Garcinia propinqua” (J Nat Prod, 2017).

The test concerns HCT-116. Briefly: Cytotoxicity against human HCT116 cells after 24 hrs by MTT assay. In kind it is functional, cell-based. The note with it: HCT-116, 24 h.
Turning to `CC(C)=CCOc1cc(O)c2c(c1)OC13C(=CC4CC1C(C)(C)OC3(CC=C(C)C)C4=O)C2=O` (mixture of isomers), the half-inhibitory concentration (IC50) worked out at 23.9 µM.

Molecule `COc1cccc2c1C(=O)c1c(O)c3c(c(O)c1C2=O)C[C@@](O)(C(=O)CO)C[C@@H]3O[C@H]1C[C@H](N)[C@H](O)[C@H](C)O1` [DOXORUBICIN] returned a half-maximal inhibitory concentration (IC50) of 9.74 µM.

In turn, `CO[C@H]1[C@@H]2C[C@H]3C(C)(C)O[C@@](/C=C/C(C)(C)O)(C2=O)[C@@]32Oc3c(c(O)cc4c3C(C)(C)C(C)O4)C(=O)[C@H]12` (stereo partly drawn) gave a half-inhibitory concentration (IC50) of 14.2 µM.
